# Measured values taken from patent US12588678B2, “Oxazoline compound, synthesis method therefor and application thereof” (NANKAI UNIVERSITY, priority 2019, dated 2026).
# Legend:
# [1] = tested on: Tetranychus cinnabarinus mite larvae; test: Larvicidal activity test, dipping method on bean seedling leaves; assay type: in vivo; conditions: for mortality at 100 µg/mL / mortality at 200 µg/mL / mortality at 0.1 µg/mL / mortality at 1 µg/mL / mortality at 10 µg/mL / mortality at 0.001 µg/mL / mortality at 0.01 µg/mL / mortality at 0.5 µg/mL / mortality at 0.05 µg/mL: Tetranychus cinnabarinus, 96 h, checked after 4 days; for mortality at 100 µg/mL: read-out: mortality of mite larvae (%), 100 mg/L; for mortality at 200 µg/mL: read-out: mortality of mite larvae (%), 200 mg/L; for mortality at 0.1 µg/mL: read-out: mortality of mite larvae (%), 0.1 mg/L; for mortality at 1 µg/mL: read-out: mortality of mite larvae (%), 1 mg/L; for mortality at 10 µg/mL: read-out: mortality of mite larvae (%), 10 mg/L; for acaricidal activity compared with etoxazole: Tetranychus cinnabarinus eggs and larvae, etoxazole as reference; for mortality at 0.001 µg/mL: read-out: mortality of mite larvae (%), 0.001 mg/L; for mortality at 0.01 µg/mL: read-out: mortality of mite larvae (%), 0.01 mg/L; for mortality at 0.5 µg/mL: read-out: mortality of mite larvae (%), 0.5 mg/L; for mortality at 0.05 µg/mL: read-out: mortality of mite larvae (%), 0.05 mg/L
# Excerpt: (§1) The assay examples are used to illustrate the acaricidal activity against Tetranychus cinnabarinus (mortality of mite larvae and mortality of mite eggs) of the compounds having the structure represented by formula (I), and the results are shown in tables 1 to 9, where mortality of mite larvae % =(number of dead mite larvae applied/total number of mite larvae applied)×100, and mortality of mite eggs %= (number of dead mite eggs applied/total number of mite eggs applied)×100.
# Tetranychus cinnabarinus bred indoors on bean seedlings was used as a test subject by the dipping method. Move adult mites onto the newly grown complete bean seedling leaves with two leaves, cut off the bean seedlings, place the bean seedlings in a greenhouse with illumination at 25° C. for laying eggs for 24 hours, then remove adult mites and keep mite eggs. And continuously culture in the greenhouse for 5 days until mite eggs hatch into mite larvae (ensuring that the number of the mites on each tested leaf is not less than 60).
# Completely immerse the bean seedling leaves containing the mite larvae into the sample solution to be detected with Tween at the prepared concentration for 5-6 seconds by using tweezers, slightly throw off residual liquid, put the bean seedling leaves back to the culture cup, continuously culture for 4 days and check the result. One of the plants was immersed in a solution containing no sample to be tested and the remaining additives were identical to the sample solution as a blank control. Each compound was replicated three times.
# [2] = tested on: Tetranychus cinnabarinus mite eggs; test: Activity against mite eggs, dipping method on bean seedling leaves; assay type: in vivo; conditions: Tetranychus cinnabarinus, 96 h, checked after 4 days; for mortality at 10 µg/mL: read-out: mortality of mite eggs (%), 10 mg/L; for mortality at 100 µg/mL: read-out: mortality of mite eggs (%), 100 mg/L; for mortality at 200 µg/mL: read-out: mortality of mite eggs (%), 200 mg/L; for mortality at 0.1 µg/mL: read-out: mortality of mite eggs (%), 0.1 mg/L; for mortality at 1 µg/mL: read-out: mortality of mite eggs (%), 1 mg/L; for mortality at 0.001 µg/mL: read-out: mortality of mite eggs (%), 0.001 mg/L; for mortality at 0.01 µg/mL: read-out: mortality of mite eggs (%), 0.01 mg/L; for mortality at 0.5 µg/mL: read-out: mortality of mite eggs (%), 0.5 mg/L
# Excerpt: as §1
# Tetranychus cinnabarinus bred indoors on bean seedlings was used as a test subject by the dipping method. Move female adult mites onto the newly grown complete bean seedling leaves with two leaves, cut off the bean seedlings, place the bean seedlings in a greenhouse with illumination at 25° C. for laying eggs for 24 hours, then remove adult mites and keep mite eggs. After continuously culturing in the greenhouse for one day, completely soak the bean seedling leaves containing the acarid eggs into the prepared sample solution to be tested for 5-6 seconds by using tweezers, slightly throw off residual liquid, put the bean seedling leaves back to the culture cup, continuously culture for 4 days and then check the result. One of the plants was immersed in a solution containing no sample to be tested and the remaining additives were identical to the sample solution as a blank control. Each compound was replicated three times.
Compound,mortality at 100 µg/mL [1] [%],mortality at 200 µg/mL [1] [%],mortality at 10 µg/mL [2] [%],mortality at 100 µg/mL [2] [%],mortality at 200 µg/mL [2] [%],mortality at 0.1 µg/mL [1] [%],mortality at 1 µg/mL [1] [%],mortality at 10 µg/mL [1] [%],mortality at 0.1 µg/mL [2] [%],mortality at 1 µg/mL [2] [%],acaricidal activity compared with etoxazole [1],mortality at 0.001 µg/mL [1] [%],mortality at 0.01 µg/mL [1] [%],mortality at 0.5 µg/mL [1] [%],mortality at 0.001 µg/mL [2] [%],mortality at 0.01 µg/mL [2] [%],mortality at 0.5 µg/mL [2] [%],mortality at 0.05 µg/mL [1] [%],"mortality at 0.05 µg/mL ([2]; read-out: mortality of mite eggs (%), 0.05 mg/L) [%]"
Fc1cccc(F)c1C1=NC(c2ccc(COc3ncccn3)cc2)CO1 (centres unmarked) [Compound R2-17],60,90,70,100,100,,,,,,,,,,,,,,
Fc1ccc(OCc2ccc(C3COC(c4c(F)cccc4F)=N3)cc2)cc1 (centres unmarked) [Compound R2-18],100,100,96,100,100,70,80,88,85,90,,,,,,,,,
Fc1cccc(F)c1C1=NC(c2ccc(COc3ccc(Cl)cc3)cc2)CO1 (centres unmarked) [Compound R2-19],100,100,100,100,100,85,88,90,,90,higher acaricidal activity than etoxazole,8,30,72,10,32,80,,
Fc1cccc(F)c1C1=NC(c2ccc(COc3ccc(Br)cc3)cc2)CO1 (centres unmarked) [Compound R2-20],92,100,90,100,100,,40,80,,60,,,,,,,,,
Cc1ccc(OCc2ccc(C3COC(c4c(F)cccc4F)=N3)cc2)cc1 (centres unmarked) [Compound R2-22],96,100,100,100,100,,55,88,80,90,,,,,,,,,
Fc1cccc(F)c1C1=NC(c2ccc(COc3ccc(C(F)(F)F)cc3)cc2)CO1 (centres unmarked) [Compound R2-23],100,100,90,90,100,75,80,95,75,85,,,,,,,,,
Fc1cccc(F)c1C1=NC(c2ccc(COc3ccc4ccccc4c3)cc2)CO1 (centres unmarked) [Compound R2-24],100,100,95,100,100,85,100,100,70,80,higher acaricidal activity than etoxazole,20,50,80,28,50,85,,
CS(=O)(=O)Oc1ccc(C2COC(c3c(F)cccc3F)=N2)cc1 (centres unmarked) [Compound R3-1],100,100,90,95,100,50,80,100,,70,,,,,,,,,
CCS(=O)(=O)Oc1ccc(C2COC(c3c(F)cccc3F)=N2)cc1 (centres unmarked) [Compound R3-2],100,100,80,95,100,,60,90,,50,,,,,,,,,
CCCS(=O)(=O)Oc1ccc(C2COC(c3c(F)cccc3F)=N2)cc1 (centres unmarked) [Compound R3-3],100,100,100,100,100,80,100,100,50,90,equivalent or better acaricidal activity compared with etoxazole,,,95,,,75,40,20
C=CS(=O)(=O)Oc1ccc(C2COC(c3c(F)cccc3F)=N2)cc1 (centres unmarked) [Compound R3-6],80,100,60,80,100,,60,80,,,,,,,,,,,
O=S(=O)(Oc1ccc(C2COC(c3c(F)cccc3F)=N2)cc1)c1ccc(F)cc1 (centres unmarked) [Compound R3-7],100,100,90,100,100,,50,90,,60,,,,,,,,,
O=S(=O)(Oc1ccc(C2COC(c3c(F)cccc3F)=N2)cc1)c1ccc(Cl)cc1 (centres unmarked) [Compound R3-8],100,100,90,95,100,60,85,98,,70,,,,,,,,,
O=S(=O)(Oc1ccc(C2COC(c3c(F)cccc3F)=N2)cc1)c1ccc(Br)cc1 (centres unmarked) [Compound R3-9],100,100,90,100,100,70,100,100,30,75,equivalent or better acaricidal activity compared with etoxazole,,,90,,,60,40,
O=S(=O)(Oc1ccc(C2COC(c3c(F)cccc3F)=N2)cc1)c1ccc(I)cc1 (centres unmarked) [Compound R3-10],100,100,85,100,100,,65,88,,60,,,,,,,,,
O=S(=O)(Oc1ccc(C2COC(c3c(F)cccc3F)=N2)cc1)c1ccccc1F (centres unmarked) [Compound R3-11],100,100,80,95,100,50,80,90,,50,,,,,,,,,
O=S(=O)(Oc1ccc(C2COC(c3c(F)cccc3F)=N2)cc1)c1cccc(F)c1 (centres unmarked) [Compound R3-12],100,100,90,100,100,,50,90,,55,,,,,,,,,
